Values quoted from earlier work, collected in article PMC3591511 (Expert reviews in molecular medicine, 2012).
pKi: −log10 of the molar value. Each block holds one compound with its values, some of them ahead of it.

Columns and labels:
IL-2/IL-2Rα = conditions: antagonist of IL-2/IL-2α receptor interaction; ref [53]

Structure (SMILES): CC(C)(C)C[C@H]1N[C@@H](C(=O)NCC[C@H](O)CO)[C@H](c2cccc(Cl)c2)[C@@]12C(=O)Nc1cc(Cl)c(F)cc12.Cl [MI-219]
- inhibition of complex formation (p53-MDM2 complex; p53-MDM2, ref [58]): ~ 5 nM

Structure (SMILES): COc1ccc(C2=N[C@@H](c3ccc(Cl)cc3)[C@@H](c3ccc(Cl)cc3)N2C(=O)N2CCNC(=O)C2)c(OC(C)C)c1 [Nutlin-3]
- activity towards the p53-MDM2 complex (p53-MDM2 complex; mid-nanomolar, enantioselective, ref [56]): ~ 70 nM

- pKi (IL-2/IL-2Rα): 7.22
Structure (SMILES): CC(C)C[C@@H](N=C(N)N)C(=O)NCC(=O)N1CCC(c2cc(-c3ccc(OCc4ccc(C(=O)O)o4)c(Cl)c3Cl)nn2C)CC1 [SP4206]
